Results published in article PMC9581421, “Functional analysis of a bitter gustatory receptor highly expressed in the larval maxillary galea of Helicoverpa armigera” (PLoS Genetics, 2022).

Target: T1, Gr180 (Helicoverpa armigera, UniProt Z9OE30KH69)
T1 construct: wild type 411 residues (239 + 172 as printed); seven TM domains predicted
T1 sequence (Z9OE30KH69 1-411): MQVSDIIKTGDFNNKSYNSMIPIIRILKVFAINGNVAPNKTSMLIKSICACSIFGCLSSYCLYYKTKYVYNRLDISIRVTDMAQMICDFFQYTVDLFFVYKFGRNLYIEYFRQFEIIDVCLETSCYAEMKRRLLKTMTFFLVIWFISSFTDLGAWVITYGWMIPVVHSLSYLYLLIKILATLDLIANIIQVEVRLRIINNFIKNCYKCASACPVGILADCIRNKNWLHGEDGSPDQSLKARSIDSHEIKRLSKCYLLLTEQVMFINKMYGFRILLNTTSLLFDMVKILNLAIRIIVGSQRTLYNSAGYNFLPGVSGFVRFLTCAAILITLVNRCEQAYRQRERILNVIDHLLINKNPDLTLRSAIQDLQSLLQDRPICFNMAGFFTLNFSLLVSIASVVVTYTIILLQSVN
Test: two-electrode voltage clamp, Xenopus oocytes
Assay type: cell-based
Conditions: 10^-2 M coumarin in Ringer solution; holding potential -80 mV; Gr180 expressed alone; agonist

With `O=c1ccc2ccccc2o1` [coumarin] the “average current at 10^-2 M” value was 241 nA.
